Reference: paper PMC10755004, “Pyrimidine salvage in Toxoplasma gondii as a target for new treatment” (Frontiers in Cellular and Infection Microbiology, 2023)
Values joined by “and” are separate entries in the source; they are usually repeats but may differ in a detail not shown here. Equal values may be shown once. Read-outs that look alike come from different tables or passages of the source.

Columns and labels:
[1] = test system: uridine/uracil transporter 1 (TgUUT1); assay: Transport of 0.1 µM [3H]-uracil into extracellular T. gondii tachyzoites (oil-stop technique); format: cell-based, Toxoplasma gondii; conditions: for Ki: inhibition of 0.1 µM [3H]-uracil transport
[2] = test system: uridine/uracil transporter 1 (TgUUT1); assay: Transport of 0.1 µM [3H]-uridine into extracellular T. gondii tachyzoites (oil-stop technique); format: cell-based, Toxoplasma gondii; conditions: for inhibition of [3H]-uridine uptake: 0.1 µM [3H]-uridine, 5 min; for Ki: inhibition of 0.1 µM [3H]-uridine transport; for Gibbs free energy of binding: from Km/Ki on [3H]-uridine transport; for δ(ΔG^0): loss of binding energy compared with uridine; for Km: 0.1 µM label, tachyzoites, n=3
T. gondii tachyzoites = assay: Uptake of tritiated pyrimidines by T. gondii tachyzoites over time; format: cell-based, Toxoplasma gondii
[3] = test system: T. gondii intracellular tachyzoites; assay: Drug sensitivity assay for T. gondii tachyzoites in HFF cells (RFP fluorescence, 6 days); format: cell-based, Toxoplasma gondii; conditions: for effect on intracellular tachyzoites: concentrations up to 25 µM; for EC50: intracellular tachyzoites in HFF, 6 days; for in vitro activity compared with sulfadiazine (in words): EC50 against T. gondii vs sulfadiazine
Experimental: The in vitro inhibitory effects of antimicrobial nucleoside agents on T. gondii growth were determined in HFF cell cultures using 96-well black plates (Optical-Bottom Plates with Polymer Base, Thermo Fisher Scientific). 150 – 200 µL of HFF cells were seeded into 96-well black plates and incubated for 3-5 days at 37°C under 5% CO2 in a humidified incubator. Once the HFF cells became confluent the supernatant was discarded and replaced with 100 µL fresh DMEMc media. Sulfadiazine (positive control) and the nucleoside compounds were already dissolved in DMSO at known concentrations, usually prepared as 10 mM. After that, every compound was diluted in DMEMc at 4x final concentration. The assays were performed in duplicate or triplicate throughout. 100 µL of 4x compounds were transferred to the wells of the first column of a 96-well black plate of which each well contained HFF cells in 100 µL DMEMc. The compounds were mixed, and 100 µL was transferred using the multichannel pipette to the next column before being transferred to each column through the entire plate over one row, leaving the last column as a negative control without drug. After that, naturally, freshly egressed parasites were collected and filtered through a 3-µm filter (Sigma-Aldrich). ~1000 parasites/well were added in 100 µL DMEMc (giving a total volume of 200 µL/well) and incubated for 6 days at a 37°C/5% CO2 in a humidified incubator. On day 6, a PHERAstar plate reader (BMG Labtech, Germany) was used to read the fluorescence intensity at 540 nm for excitation and 590 nm for emission. The EC50 values and fluorescence data were determined and plotted by using Prism 8.0 (GraphPad). Each experiment was independently performed 3-5 times.
Most published protocols for in vitro drug screening against T. gondii use the MTT assay, which is a colorimetric assay that relies on tetrazolium salt and is used for accessing cell viability, cell proliferation and cytotoxicity for the host cells ([Jin et al., 2012]). Our protocol is an adaptation from a method that was used to evaluate antiretroviral compounds against T. gondii tachyzoites ([Wang et al., 2019]). These authors added 5×10^4 cells/mL freshly egressed tachyzoites to each well of a 96-well plate with an HFF cell monolayer, followed by incubation for 4 h to allow the cells to invade the host cells; the medium containing extracellular tachyzoites was then removed and fresh medium containing the desired concentration of the antiretroviral drugs was added to the wells and incubated for 5 days at 37°C and 5% CO2 in a humidified incubator ([Wang et al., 2019]). In our adaptation of this protocol, we aimed to eliminate the step of wash/removal of tachyzoites, in order to increase reproducibility. We thus prepared the serial dilutions of compounds in the 96-well plates containing the HFF monolayer cells and then added the lower number of 1×10^4 cells/mL freshly lysed tachyzoites to the 96-well plates, already containing both the HFF monolayer cells and tested compounds. The plates were then incubated for 6 days at 37°C and 5% CO2 in a humidified incubator. A major advantage that was introduced was detection of T. gondii in the wells, which was achieved by measuring fluorescence of the RFP-expressing parasites.

T. gondii [4] = test system: T. gondii; design: method as in el Kouni et al., 1999; conditions: ref el Kouni et al., 1999; read-out: EC50 against T. gondii; cited from earlier work
T. gondii [5] = assay: Mouse model of acute toxoplasmosis, parasite burden in lung by qPCR; format: in vivo, C57BL/6J mice; conditions: pyrimidines 25 mg/kg i.p., sulfadiazine oral in water, lung parasite burden day 10
HFF cells [6] = assay: cells; conditions: Homo sapiens, 144 h
HFF cells [7] = conditions: for S.I.: selectivity index, HFF cytocidal EC50/tachyzoite EC50; for EC50: read-out: HFF ctotoxicity EC50 Cytostatic, uninfected HFF, 6 days
TgAT1 = test system: TgAT1; design: method as in Chiang et al., 1999; conditions: TgAT1 expressed in X. laevis oocytes; ref Chiang et al., 1999; cited from earlier work
[8] = read-out: HFF ctotoxicity EC50 Cytostatic
[9] = read-out: HFF ctotoxicity EC50 Cytostatic (second column)

O=c1cc[nH]c(=O)[nH]1 [Uracil]
Vmax ([1]; [3H]-uracil as substrate): 0.166 pmol(10^7 cells)^-1 min^-1
Km ([1]; [3H]-uracil as substrate, 0.1 µM label, tachyzoites, n=3): 2.05 ± 0.4 µM
inhibition of [3H]-uridine uptake ([2]; 250 µM inhibitor): 80%
Ki [2]: 1.15 ± 0.07 µM
Rate of uptake (T. gondii tachyzoites; 0.10 µM radiolabel): 0.026 ± 0.0014 pmol(10^7 cells)^-1min^-1
Rate of uptake (T. gondii tachyzoites; 0.10 µM radiolabel, listed as [^3H]-uracil): 0.026 pmol(10^7 cells)^-1min^-1

C[C@H]1O[C@@H](n2ccc(=O)[nH]c2=O)[C@H](O)[C@@H]1O [5’-deoxyuridine]
effect on intracellular tachyzoites [3]: no effect

Nc1ccc(S(=O)(=O)Nc2ncccn2)cc1 [Sulfadiazine]
EC50 ([3]; Toxoplasma gondii, 144 h): 12.4 ± 1.08 µM

Cc1cn([C@H]2C[C@H](O)[C@@H](CO)O2)c(=O)[nH]c1=O [Thymidine]
inhibition of [3H]-uridine uptake ([2]; 250 µM inhibitor): somewhat inhibited
Gibbs free energy of binding [2]: -4.09 kcal/mol
Ki [2]: 1010 ± 145 µM
δ(ΔG^0) [2]: 3.37 kcal/mol and 3.39 kcal/mol
inhibition of [3H]-thymidine uptake (T. gondii tachyzoites; 0.25 µM [3H]-thymidine over 10 min, 1 mM unlabeled inhibitor): did not significantly inhibit
Rate of uptake (T. gondii tachyzoites; 0.25 µM radiolabel, over 10 min): 0.00071 ± 0.00016 pmol(10^7 cells)^-1min^-1

Cc1cn([C@H]2CC[C@@H](CO)O2)c(=O)[nH]c1=O [3’-deoxythymidine]
effect on intracellular tachyzoites [3]: no effect

O=[N+]([O-])c1ccc(CSc2ncnc3c2ncn3[C@@H]2O[C@H](CO)[C@@H](O)[C@H]2O)cc1 [NBMPR]
EC50 [3]: 3.19 ± 0.14 µM
EC50 (T. gondii [4]): 10.2 µM

O=c1[nH]cc(F)c(=O)[nH]1 [5-FU, 5-fluorouracil]
efficacy against acute toxoplasmosis, comparison between treatments (T. gondii [5]): not significantly different from sulfadiazine
efficacy against acute toxoplasmosis, comparison between treatments (T. gondii [5]; listed as 5F-uracil): similarly effective as sulfadiazine
δ(ΔG^0) ([1]; 5-FU Ki compared to uracil Km): 0.717 kcal/mol
Ki [1]: 6.8 ± 2.12 µM
EC50 (HFF cells [6]; [8]): 2.49 ± 0.43 µM
EC50 (HFF cells [6]; [9]): 3070 ± 340 µM
Ki [2]: 5.24 ± 0.72 µM
S.I. (HFF cells [7]): 2720
in vitro activity compared with sulfadiazine (in words) [3]: well below
EC50 ([3]; Toxoplasma gondii, 144 h): 1.13 ± 0.16 µM

O=c1[nH]c(=O)n([C@H]2C[C@H](O)[C@@H](CO)O2)cc1F [5-F,2’dUrd, 5-fluoro-2’deoxyuridine]
efficacy against acute toxoplasmosis, comparison between treatments (T. gondii [5]): significantly less effective
efficacy against acute toxoplasmosis, comparison between treatments (T. gondii [5]; listed as 5F,2’-deoxyuridine): similarly effective as sulfadiazine
EC50 (HFF cells [6]; [8]): 0.19 ± 0.05 µM
EC50 (HFF cells [6]; [9]): 1480 ± 510 µM
S.I. (HFF cells [7]): 2205
in vitro activity compared with sulfadiazine (in words) [3]: well below
EC50 ([3]; Toxoplasma gondii, 144 h): 0.67 ± 0.07 µM

Cc1cn([C@@H]2O[C@H](CO)[C@@H](O)[C@H]2O)c(=O)[nH]c1=O [5-Methyluridine]
Ki [2]: 2380 ± 774 µM

O=c1ccn([C@H]2C[C@H](O)[C@@H](CO)O2)c(=O)[nH]1 [2’-Deoxyuridine]
Ki [2]: 134 ± 31 µM
δ(ΔG^0) [2]: 2.15 kcal/mol and 2.17 kcal/mol
effect on intracellular tachyzoites [3]: no effect

O=c1[nH]cnc2c1ncn2[C@@H]1O[C@H](CO)[C@@H](O)[C@H]1O [Inosine]
Ki [2]: 28.2 ± 4.1 µM

Nc1ccn([C@@H]2O[C@H](CO)[C@@H](O)[C@H]2O)c(=O)n1 [Cytidine]
Rate of uptake (T. gondii tachyzoites; 0.20 µM radiolabel): 0.0029 ± 0.0004 pmol(10^7 cells)^-1min^-1
Rate of uptake (T. gondii tachyzoites; 0.20 µM radiolabel, listed as [^3H]-cytidine): 0.0029 pmol(10^7 cells)^-1min^-1

Nc1ncnc2c1ncn2[C@@H]1O[C@H](CO)[C@@H](O)[C@H]1O [Adenosine]
inhibition of TgUUT1 uridine uptake ([2]; 2500-fold excess of unlabeled inhibitor): ~ 70%
Ki [2]: 112 ± 6 µM
Km (TgAT1): 114 µM

Nc1ncnc2c1ncn2[C@@H]1O[C@H](CO)[C@@H](O)[C@@H]1O [Ara-A, adenine arabinoside]
EC50 [3]: 11.4 ± 1.8 µM

O=c1ccn([C@@H]2O[C@H](CO)[C@@H](O)[C@H]2O)c(=O)[nH]1 [Uridine]
Ki [1]: 2.44 ± 0.59 µM
inhibition of [3H]-uridine uptake ([2]; 1 mM unlabeled inhibitor): 90%
Vmax ([2]; [3H]-uridine as substrate): 1.21 ± 0.24 pmol(10^7 cells)^-1 min^-1
Km ([2]; [3H]-uridine as substrate, listed as [^3H]-uridine): 3.34 ± 0.82 µM
Km ([2]; [3H]-uridine as substrate, listed as uridine): 3.3 ± 0.8 µM
Gibbs free energy of binding [2]: -7.46 kcal/mol
Rate of uptake (T. gondii tachyzoites; 0.10 µM radiolabel): 0.011 ± 0.0006 pmol(10^7 cells)^-1min^-1
inhibition of [3H]-cytidine uptake (T. gondii tachyzoites; 0.2 µM [3H]-cytidine, 1 mM unlabeled inhibitor): fully inhibited
inhibition of [3H]-thymidine uptake (T. gondii tachyzoites; 0.25 µM [3H]-thymidine, 250 µM inhibitor): did not inhibit
inhibition at 250 µM (T. gondii tachyzoites; Toxoplasma gondii, [3H]-cytidine, 250 µM inhibitor): 100%

O=c1ccn([C@H]2CC[C@@H](CO)O2)c(=O)[nH]1 [2’,3’-dideoxyuridine]
effect on intracellular tachyzoites [3]: no effect

CCc1nc(N)nc(N)c1-c1ccc(Cl)cc1 [Pyrimethamine]
EC50 ([3]; Toxoplasma gondii, 144 h): 16.2 µM

O=c1[nH]c(=O)n([C@@H]2O[C@H](CO)[C@@H](O)[C@H]2O)cc1F [5-FUrd, 5-Flourouridine]
EC50 (HFF cells [7]; first (low concentration) phase, growth inhibition): 0.11 ± 0.1 µM
EC50 (HFF cells [7]; second phase (cytocidal per footnote and text)): 20.4 ± 1 µM
S.I. (HFF cells [7]): 45
in vitro activity compared with sulfadiazine (in words) [3]: well below
EC50 [3]: 0.45 ± 0.02 µM
